Reference: US20240181022A1, “AMURINS LYSINS, AND LYSIN-ANTIMICROBIAL PEPTIDE (AMP) CONSTRUCTS ACTIVE AGAINST GRAM-NEGATIVE BACTERIA” (priority 2021, published 2024)
Where no end group is shown, it is not given here. [ ]: non-standard residue; d: D form.

Experiments:
M. smegmatis = experiment: MIC against M. smegmatis; assay type: cell-based, Mycobacterium smegmatis; conditions: M. smegmatis (MC 155); CAAT media
M. abscessus = experiment: MIC against MDR M. abscessus isolates; assay type: cell-based, Mycobacterium abscessus; conditions: 7 days, AST media (CAAT)
A. xylosoxidans [1] = assay type: cell-based, Achromobacter xylosoxidans
Procedure: (§1) MIC values were determined using a modification of the standard broth microdilution reference method defined by the Clinical and Laboratory Standards Institute (CLSI), CLSL. 2015. Methods for Dilution Antimicrobial Susceptibility Tests for Bacteria That Grow Aerobically; Approved Standard-10th Edition. Clinical and Laboratory Standards Institute, Wayne, PA. The modification was based on the replacement of Mueller Hinton Broth with either CAA media (with and without NaCl) or CAA supplemented with 2.5% human serum. MIC is the minimum concentration of peptide sufficient to suppress at least 80% of the bacterial growth compared to control.
(§2) The MICs for were determined as described below using the broth microdilution method for meropenem, GN370, AM1, AM2, and AM3. The results are shown below in Tables 8-12.
The activity of GN370 and AM1 was evaluated against various bacterial isolates, including mucoid and α-hemolytic isolates of P. aeruginosa, MDR isolates, and carbapenem-resistant isolates.

A. dolens = experiment: MIC by broth microdilution against A. dolens; assay type: cell-based, Achromobacter dolens; conditions: A. dolens isolates
Procedure: as §1
(§3) Based on these nine most prevalent strains, direct lytic agents, including GN370, AM1, AM2, and AM3, were evaluated against various isolates from each of the 9 strains. MICs and MBECs (Example 3) were determined, and a sputum inhibition test was conducted, as described below in Example 5.
as §2

B. cenocepacia = experiment: MIC by broth microdilution against B. cenocepacia; assay type: cell-based, Burkholderia cenocepacia; conditions: B. cenocepacia isolates
Procedure: as §1, §3, §2

B. gladioli = experiment: MIC by broth microdilution against B. gladioli; assay type: cell-based, Burkholderia gladioli; conditions: B. gladioli isolates
Procedure: as §1, §3, §2

B. multivorans = experiment: MIC by broth microdilution against B. multivorans; assay type: cell-based, Burkholderia multivorans; conditions: B. multivorans isolates
Procedure: as §1, §3, §2

S. maltophilia = experiment: Time-kill assay in cystic fibrosis patient sputum, S. maltophilia; assay type: cell-based, Stenotrophomonas maltophilia
Excerpt: (§4) Sputum from 5 cystic fibrosis patients was pooled. The resulting mixture was not filtered, as it was very dense and not amenable to sterilization by filtration. Sputum is known to be a complex mixture of DNA, carbohydrates, and lipids ([…], 2016). As used herein, the term “sputum” refers to the mucus present in the respiratory tract of an animal, such as a human. Sputum may increase in thickness due to the irritation or infection, including bacterial infection, and in some instances, may be expelled by the animal while coughing. In certain instances, cystic fibrosis may be characterized by the presence of a thick, sticky mucus or sputum present in the lungs of cystic fibrosis patients. The activity of GN370, AM1, AM2, AM3, and meropenem was determined in the sputum using a time-kill assay format as disclosed in Zhang et al., Antimicrobial peptide therapeutics for cystic fibrosis, Antimicrobial Agents Chemother. 2005; 49(7):2921-2927. […] Untreated controls were included in addition to pretreatment plating (t=0) for a baseline CFU determination. Activity was also determined in the absence of sputum for comparison to activity observed in the presence of sputum.

A. xylosoxidans [2] = experiment: Time-kill assay in cystic fibrosis patient sputum, A. xylosoxidans; assay type: cell-based, Achromobacter xylosoxidans
Excerpt: as §4

[3] = tested on: Gram-negative bacteria (including P. aeruginosa, E. cloacae, K. pneumoniae, E. coli, and A. baumannii); experiment: Inner membrane depolarization (diSC3-5 release); assay type: cell-based; conditions: equivalent or superior to melittin, LL37, RI-18, and PMBN
Excerpt: The mechanism of action of Chp peptides disclosed herein can also be evaluated by measuring the depolarization of the inner membrane of Gram-negative bacteria, including MDR and XDR strains. The inner membrane comprises […] phospholipids such as cardiolipin, phosphatidylglycerol, and phosphatidylserine. This creates a net negative charge at physiological pH, which is believed to enhance the binding of cationic peptides, including the Chp peptides disclosed herein. Upon permeabilization of the outer membrane, the ability of Chp peptides to induce dissipation of the cytoplasmic membrane electrical potential gradient (Ay) may be examined, for example by following the release of 3,3′-dipropylthiadicarbocyanine (diSC3-5) as a function of time compared to an untreated control. DiSC3-5 is a fluorophore that is a caged cation concentrated within the bacterial inner membrane and under the influence of the bacterial membrane electrical potential gradient. At high concentrations, diSC3-5 self-quenches, leading to the suppression of fluorescence. When the inner membrane deteriorates or becomes leaky for cations, including protons, the Δψ dissipates, which leads to a release of diSC3-5 and a subsequent increase in fluorescence. […] Without wishing to be bound by theory, it is believed that the adsorption and binding of Chp peptides to the inner membrane and insertion into the lipid bilayer results in membrane permeabilization and pore/ion channel formation, which is concomitant with the collapse of the membrane's electrical potential.

A. ruhlandii = assay type: cell-based, Achromobacter ruhlandii
Procedure: The MBEC (after 2-hour treatments) was determined as described in Jones and Wozniak, PsI Produced by Mucoid Pseudomonas aeruginosa Contributes to the Establishment of Biofilms and Immune Evasion, Am. Soc. Microbiol. 2017, 8(3):e00864-17. Meropenem and tobramycin were included as controls and were both poorly active, with MBEC90 values of >256 μg/mL (data not shown).

M[dR]L[dK]MA[dR][dR][dR]Y[dR]LP[dR][dR][dR]S[dR][dR]LFS[dR]TAL[dR]MHP[dR]N[dR]L[dR][dR]IM[dR]GGI[dR]F [AM2]
MIC (M. smegmatis): 0.5 µg/mL
MIC (M. abscessus; M. abscessus strain BK51402): 2 µg/mL
MIC (M. abscessus; M. abscessus strain BK51403 (ATCC 19977)): 4 µg/mL
MIC (M. abscessus; M. abscessus strain BK51408): 8 µg/mL
MIC (M. abscessus; M. abscessus strain BK55096): 4 µg/mL
MIC (M. abscessus; M. abscessus strain BK55691): 1 µg/mL
MIC (M. abscessus; M. abscessus strain BK58156): 1 µg/mL
MIC50 (A. xylosoxidans [1]; A. xylosoxidans isolates): 2 µg/mL
MIC90 (A. xylosoxidans [1]; A. xylosoxidans isolates): 64 µg/mL
MIC (A. xylosoxidans [1]; A. xylosoxidans test organism of the sputum time-kill assay): AM2 (MIC = 1)
MIC50 (A. dolens): 4 µg/mL
MIC90 (A. dolens): 8 µg/mL
MIC Range (A. dolens; in µg/mL): 0.016-16
MIC50 (B. cenocepacia): > 128 µg/mL
MIC90 (B. cenocepacia): > 128 µg/mL
MIC50 (B. gladioli): 4 µg/mL
MIC90 (B. gladioli): 8 µg/mL
MIC Range (B. gladioli; in µg/mL): 0.016-16
MIC50 (B. multivorans): > 128 µg/mL
MIC90 (B. multivorans): > 128 µg/mL
effect of sputum on antibacterial activity (S. maltophilia; 10% CF sputum vs no sputum): none of GN370, AM1, AM2, and AM3 was inhibited
Log10 CFU/mL of sputum (S. maltophilia; absence of sputum, 1 hr): 2.3 Log10 CFU/mL of sputum
Log10 CFU/mL of sputum (S. maltophilia; absence of sputum, 3 hr): 2.3 Log10 CFU/mL of sputum
Log10 CFU/mL of sputum (S. maltophilia; absence of sputum, 24 hr): 2.3 Log10 CFU/mL of sputum
Log10 CFU/mL of sputum (S. maltophilia; presence of 10% sputum, 1 hr): 2.3 Log10 CFU/mL of sputum
Log10 CFU/mL of sputum (S. maltophilia; presence of 10% sputum, 3 hr): 2.3 Log10 CFU/mL of sputum
Log10 CFU/mL of sputum (S. maltophilia; presence of 10% sputum, 24 hr): 2.3 Log10 CFU/mL of sputum
killing by 1 hour, maintained at 24 hours (S. maltophilia; time-kill): complete killing
effect of sputum on antibacterial activity (A. xylosoxidans [2]; 10% CF sputum vs no sputum): none of GN370, AM1, AM2, and AM3 was inhibited
Log10 CFU/mL of sputum (A. xylosoxidans [2]; absence of sputum, 1 hr): 3.3 Log10 CFU/mL of sputum
Log10 CFU/mL of sputum (A. xylosoxidans [2]; absence of sputum, 3 hr): 2.3 Log10 CFU/mL of sputum
Log10 CFU/mL of sputum (A. xylosoxidans [2]; absence of sputum, 24 hr): 2.3 Log10 CFU/mL of sputum
Log10 CFU/mL of sputum (A. xylosoxidans [2]; presence of 10% sputum, 1 hr): 2.3 Log10 CFU/mL of sputum
Log10 CFU/mL of sputum (A. xylosoxidans [2]; presence of 10% sputum, 3 hr): 2.3 Log10 CFU/mL of sputum
Log10 CFU/mL of sputum (A. xylosoxidans [2]; presence of 10% sputum, 24 hr): 2.3 Log10 CFU/mL of sputum
killing by 1 hour, maintained at 24 hours (A. xylosoxidans [2]; time-kill): complete killing
inner membrane depolarization (diSC3-5) [3]: dose-dependent increase in membrane depolarization
MBEC50 (A. ruhlandii): 8 µg/mL
MBEC90 (A. ruhlandii): 32 µg/mL
MBEC Range (A. ruhlandii): 1 to 32 µg/mL
